In US20250188040A1, “PHARMACEUTICAL COMPOSITIONS COMPRISING WRN HELICASE INHIBITORS” (Vividion Therapeutics, Inc., priority 2022, published 2025):
Read-outs that look alike come from different tables or passages of the source.

Experiments:
WRN C727 [1] = target: T1, WRN C727 (Homo sapiens, UniProt Q14191); test: Target engagement, in situ (cell), OCI-AML2; format: cell-based; conditions: OCI-AML2 cells, read-out: OCI-AML2 WRN C727 TE50 in situ (cell)
T1 construct: endogenous in cells; host or cells: OCI-AML2
Protocol: Cells or cell lysates were treated with a dose response of compound followed by probe treatment, which labels solvent exposed cysteines. Proteins were enzymatically digested with trypsin and probe-labelled peptides were enriched with streptavidin. Isolated peptides were then separated using reversed-phase liquid chromatography on a C18 column (Dionex Ultimated 3000 nano-LC, Thermo). Peptides were analyzed by parallel reaction monitoring mass spectrometry (Exploris 120, Thermo).
Target engagement (%) is calculated relative to DMSO treated control samples.

WRN C727 [2] = target: T1, WRN C727; test: Target engagement, in vitro (lysate), OCI-AML2; format: binding; conditions: read-out: OCI-AML2 WRN C727 TE50 in vitro (lysate)
In short: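 Percent engagement of WRN C727 is expressed against DMSO-treated samples, measured by PRM mass spectrometry of streptavidin-enriched, probe-tagged tryptic peptides. Compound dose responses preceded probe labelling of solvent-exposed cysteines, in either living OCI-AML2 cells or their lysates.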

SW480 cells = test: Cell growth assay (CellTiter-Glo 2.0), SW480 MSS cell line; conditions: Homo sapiens, SW480, 120 h, read-out: Cell Growth Inhibition GI50 SW480
HCT 116 cells = test: Cell growth assay (CellTiter-Glo 2.0), HCT 116 MSI-H cell line; conditions: Homo sapiens, HCT-116, 120 h, read-out: Cell Growth Inhibition GI50 HCT-116
[3] = target: hWRN(519-1227)_C-H3CV-GFP-10His (Homo sapiens, UniProt Q14191); test: Helicase Assay for WRN Inhibition (ATP-dependent, fluorescence based)
[4] = WRN Helicase IC50, 30 min preincubation with ATP, 30 min reaction

Sequence of hWRN(519-1227)_C-H3CV-GFP-10His (Q14191 519-1227): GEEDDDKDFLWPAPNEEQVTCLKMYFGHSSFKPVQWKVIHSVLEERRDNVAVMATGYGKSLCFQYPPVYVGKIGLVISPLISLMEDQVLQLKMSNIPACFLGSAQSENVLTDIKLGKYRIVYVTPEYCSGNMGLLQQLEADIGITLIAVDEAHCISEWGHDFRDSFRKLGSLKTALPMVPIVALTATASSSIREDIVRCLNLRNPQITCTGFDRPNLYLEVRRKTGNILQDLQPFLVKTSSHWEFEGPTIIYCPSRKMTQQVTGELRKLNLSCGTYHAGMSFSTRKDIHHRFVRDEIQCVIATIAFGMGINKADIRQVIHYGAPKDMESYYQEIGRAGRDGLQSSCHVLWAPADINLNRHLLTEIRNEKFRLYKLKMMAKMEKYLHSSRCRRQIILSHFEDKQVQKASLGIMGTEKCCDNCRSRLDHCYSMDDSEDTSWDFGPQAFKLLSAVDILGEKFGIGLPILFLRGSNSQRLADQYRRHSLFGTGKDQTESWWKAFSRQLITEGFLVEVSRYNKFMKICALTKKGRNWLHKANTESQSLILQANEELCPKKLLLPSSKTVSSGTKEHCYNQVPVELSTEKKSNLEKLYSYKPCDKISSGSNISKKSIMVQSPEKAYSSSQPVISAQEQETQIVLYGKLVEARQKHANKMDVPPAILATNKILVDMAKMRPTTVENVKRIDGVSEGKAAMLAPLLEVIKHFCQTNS
T1 sequence (Q14191 whole entry): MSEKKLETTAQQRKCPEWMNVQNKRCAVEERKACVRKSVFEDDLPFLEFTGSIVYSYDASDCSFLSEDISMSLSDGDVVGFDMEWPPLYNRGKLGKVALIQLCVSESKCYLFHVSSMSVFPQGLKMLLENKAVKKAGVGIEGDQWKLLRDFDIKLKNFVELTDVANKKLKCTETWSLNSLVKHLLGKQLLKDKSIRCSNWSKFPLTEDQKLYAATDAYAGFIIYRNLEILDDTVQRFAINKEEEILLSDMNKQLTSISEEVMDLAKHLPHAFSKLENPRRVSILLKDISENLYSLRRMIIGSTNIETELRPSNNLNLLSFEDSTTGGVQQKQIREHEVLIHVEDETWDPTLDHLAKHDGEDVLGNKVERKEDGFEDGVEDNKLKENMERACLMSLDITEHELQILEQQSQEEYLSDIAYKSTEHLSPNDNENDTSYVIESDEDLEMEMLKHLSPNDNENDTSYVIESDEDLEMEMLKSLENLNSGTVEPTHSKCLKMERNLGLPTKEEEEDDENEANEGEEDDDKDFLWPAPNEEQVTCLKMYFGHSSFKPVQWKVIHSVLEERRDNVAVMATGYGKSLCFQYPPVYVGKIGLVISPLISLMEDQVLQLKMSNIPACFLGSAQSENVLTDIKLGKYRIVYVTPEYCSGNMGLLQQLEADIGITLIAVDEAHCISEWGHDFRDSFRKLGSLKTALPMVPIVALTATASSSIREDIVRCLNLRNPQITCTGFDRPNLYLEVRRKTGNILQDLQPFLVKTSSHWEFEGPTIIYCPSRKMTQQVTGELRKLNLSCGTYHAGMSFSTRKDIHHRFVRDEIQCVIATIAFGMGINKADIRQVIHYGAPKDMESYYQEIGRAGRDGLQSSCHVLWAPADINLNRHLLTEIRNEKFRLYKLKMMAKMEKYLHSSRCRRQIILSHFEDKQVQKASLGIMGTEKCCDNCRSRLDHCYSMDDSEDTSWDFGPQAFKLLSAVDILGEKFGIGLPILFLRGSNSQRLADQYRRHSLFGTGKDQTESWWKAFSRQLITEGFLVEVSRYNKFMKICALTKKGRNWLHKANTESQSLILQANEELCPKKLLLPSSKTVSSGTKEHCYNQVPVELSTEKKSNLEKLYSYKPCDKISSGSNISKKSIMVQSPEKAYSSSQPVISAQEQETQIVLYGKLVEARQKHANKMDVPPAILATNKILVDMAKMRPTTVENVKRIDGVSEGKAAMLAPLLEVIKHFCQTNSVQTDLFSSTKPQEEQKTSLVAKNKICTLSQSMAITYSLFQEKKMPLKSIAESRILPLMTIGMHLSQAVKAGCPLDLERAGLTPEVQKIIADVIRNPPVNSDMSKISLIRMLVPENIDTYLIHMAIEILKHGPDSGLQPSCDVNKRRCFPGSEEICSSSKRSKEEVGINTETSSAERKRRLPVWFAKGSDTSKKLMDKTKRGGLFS

IC50 (WRN C727 [1]) [nM]	IC50 (WRN C727 [2]) [nM]	GI50 (SW480 cells) [µM]	GI50 (HCT 116 cells) [nM]	IC50 [3, 4] [nM]	IC50 [3] [nM]	Structure (SMILES)
21400	> 100000	> 10	7100	12000		C[C@@H](/C=C/S(C)(=O)=O)NC(=O)c1cnc(NC2CCCC2)nc1Oc1ccccc1 [Example 164, (S,E)-2-(cyclopentylamino)-N-(4-(methylsulfonyl)but-3-en-2-yl)-4-phenoxypyrimidine-5-carboxamide]
8.75	93.2	13.6	17	48.3		CS(=O)(=O)/C=C/[C@@H](NC(=O)c1cnc(C(F)(F)C2CC2)nc1Oc1ccccc1)C1CC1 [Example 224, (S,E)-N-(1-cyclopropyl-3-(methylsulfonyl)allyl)-2-(cyclopropyldifluoromethyl)-4-phenoxypyrimidine-5-carboxamide]
16	119	18	17	54.4		CS(=O)(=O)/C=C/[C@@H](NC(=O)c1cnc(C(F)(F)C2CC2)nc1Oc1ccccc1)C1CCC1 [Example 225, (S,E)-N-(1-cyclobutyl-3-(methylsulfonyl)allyl)-2-(cyclopropyldifluoromethyl)-4-phenoxypyrimidine-5-carboxamide]
3960	8280	7.8	210		380	C=C(C#N)CNC(=O)c1cnc(C(F)(F)C2CC2)nc1Oc1ccccc1 [Example 272, N-(2-cyanoallyl)-2-(cyclopropyldifluoromethyl)-4-phenoxypyrimidine-5-carboxamide]

Continued, compound first:

Structure (SMILES)	IC50 (WRN C727 [1]) [nM]	IC50 (WRN C727 [2]) [nM]	GI50 (SW480 cells) [µM]	GI50 (HCT 116 cells) [nM]	IC50 [3, 4] [nM]	IC50 [3] [nM]
C[C@@H](/C=C/S(C)(=O)=O)NC(=O)c1cc(C#N)c(C2CCCC2)nc1Oc1ccccc1 [Example 163, (S,E)-5-cyano-6-cyclopentyl-N-(4-(methylsulfonyl)but-3-en-2-yl)-2-phenoxynicotinamide]	560	1760	3.9	400	740	
CC(C)(C)c1ncc(C(=O)N2CC(=CS(C)(=O)=O)C2)c(Oc2ccccc2)n1 [Example 189, (2-(tert-butyl)-4-phenoxypyrimidin-5-yl)(3-((methylsulfonyl)methylene)azetidin-1-yl)methanone]	100	640	> 13.8	102		241
N#CC=C1CN(C(=O)c2cnc(C3CC3)nc2Oc2ccccc2)C1 [Example 264, 2-(1-(2-cyclopropyl-4-phenoxypyrimidine-5-carbonyl)azetidin-3-ylidene)acetonitrile]	6650	16300	8.1	3800		2300
